Consider 25 compounds from ChEMBL document CHEMBL5143682, “Design and synthesis of cinnamic acid triptolide ester derivatives as potent antitumor agents and their biological evaluation” (Bioorg Med Chem Lett, 2022).

The subject of the assay is HepG2. The assay can be described thus: Antiproliferative activity against human HepG2 cells assessed as reduction in cell viability measured after 48 hrs by CCK-8 assay. Format: functional, cell-based. The settings on record: HepG2, 48 h. On the technique in general: Formazan colour is commonly taken as a measure of viable cells.

`CCc1ccc(/C=C/C(=O)O[C@@H]2[C@@]3(C(C)C)O[C@H]3[C@@H]3O[C@]34[C@]23O[C@H]3C[C@H]2C3=C(CC[C@@]24C)C(=O)OC3)cc1`: the IC50 (as a rule, the point on the concentration scale where inhibition reaches its midpoint) is 454 nM.

For the compound `CC(C)[C@]12O[C@H]1[C@@H]1O[C@]13[C@]1(O[C@H]1C[C@H]1C4=C(CC[C@@]13C)C(=O)OC4)[C@@H]2OC(=O)/C=C/c1ccc(N2CCOCC2)cc1`, the IC50 was found to be 783 nM.

For the compound `CC(C)[C@]12O[C@H]1[C@@H]1O[C@]13[C@]1(O[C@H]1C[C@H]1C4=C(CC[C@@]13C)C(=O)OC4)[C@@H]2OC(=O)/C=C/c1ccc(N2CCCCC2)cc1`, the IC50 was 620 nM.

`COc1ccc(/C=C/C(=O)O[C@@H]2[C@@]3(C(C)C)O[C@H]3[C@@H]3O[C@]34[C@]23O[C@H]3C[C@H]2C3=C(CC[C@@]24C)C(=O)OC3)cc1OC`: the IC50 was found to be 686 nM.

For the compound `CC(C)[C@]12O[C@H]1[C@@H]1O[C@]13[C@]1(O[C@H]1C[C@H]1C4=C(CC[C@@]13C)C(=O)OC4)[C@@H]2OC(=O)/C=C/c1ccc(C#N)cc1`, the IC50 turned out to be 591 nM.

In the case of `CC(C)[C@]12O[C@H]1[C@@H]1O[C@]13[C@]1(O[C@H]1C[C@H]1C4=C(CC[C@@]13C)C(=O)OC4)[C@@H]2OC(=O)/C=C/c1ccc(S(C)(=O)=O)cc1`, the IC50 was 564 nM.

In the case of `CC(C)[C@]12O[C@H]1[C@@H]1O[C@]13[C@]1(O[C@H]1C[C@H]1C4=C(CC[C@@]13C)C(=O)OC4)[C@@H]2OC(=O)/C=C/c1cc(Br)ccc1F`, the IC50 came to 591 nM.

For the compound `CCOP(=O)(OCC)Oc1ccc(/C=C/C(=O)O[C@@H]2[C@@]3(C(C)C)O[C@H]3[C@@H]3O[C@]34[C@]23O[C@H]3C[C@H]2C3=C(CC[C@@]24C)C(=O)OC3)cc1OC`, the IC50 was found to be 355 nM.

Take `CC(C)[C@]12O[C@H]1[C@@H]1O[C@]13[C@]1(O[C@H]1C[C@H]1C4=C(CC[C@@]13C)C(=O)OC4)[C@@H]2OC(=O)CCc1cccnc1`: the 50% inhibitory concentration (IC50) is 839 nM.

Consider `CC(C)[C@]12O[C@H]1[C@@H]1O[C@]13[C@]1(O[C@H]1C[C@H]1C4=C(CC[C@@]13C)C(=O)OC4)[C@@H]2OC(=O)/C=C/c1ccccc1F`, for which the IC50 turned out to be 381 nM.

As to `COc1ccc(/C=C/C(=O)O[C@@H]2[C@@]3(C(C)C)O[C@H]3[C@@H]3O[C@]34[C@]23O[C@H]3C[C@H]2C3=C(CC[C@@]24C)C(=O)OC3)cc1`, the IC50 was 654 nM.

Take `COc1cc(/C=C/C(=O)O[C@@H]2[C@@]3(C(C)C)O[C@H]3[C@@H]3O[C@]34[C@]23O[C@H]3C[C@H]2C3=C(CC[C@@]24C)C(=O)OC3)cc([N+](=O)[O-])c1OC`: the IC50 worked out at 663 nM.

As for `CC(C)[C@]12O[C@H]1[C@@H]1O[C@]13[C@]1(O[C@H]1C[C@H]1C4=C(CC[C@@]13C)C(=O)OC4)[C@@H]2OC(=O)/C=C/c1ccc(Br)cc1`, the IC50 is 838 nM.

As for `COc1cc(CCC(=O)O[C@@H]2[C@@]3(C(C)C)O[C@H]3[C@@H]3O[C@]34[C@]23O[C@H]3C[C@H]2C3=C(CC[C@@]24C)C(=O)OC3)ccc1O`, the IC50 stood at 818 nM.

As for `CC(C)[C@]12O[C@H]1[C@@H]1O[C@]13[C@]1(O[C@H]1C[C@H]1C4=C(CC[C@@]13C)C(=O)OC4)[C@@H]2OC(=O)/C=C/c1cccnc1`, the IC50 turned out to be 538 nM.

Turning to `CC(C)[C@]12O[C@H]1[C@@H]1O[C@]13[C@]1(O[C@H]1C[C@H]1C4=C(CC[C@@]13C)C(=O)OC4)[C@@H]2OC(=O)/C=C/c1ccc([N+](=O)[O-])cc1`, the IC50 amounted to 695 nM.

Take `CC(C)[C@]12O[C@H]1[C@@H]1O[C@]13[C@]1(O[C@H]1C[C@H]1C4=C(CC[C@@]13C)C(=O)OC4)[C@@H]2OC(=O)/C=C/c1ccccc1`: the IC50 is 413 nM.

For the compound `CCOP(=O)(OCC)Oc1ccc(/C=C/C(=O)O[C@@H]2[C@@]3(C(C)C)O[C@H]3[C@@H]3O[C@]34[C@]23O[C@H]3C[C@H]2C3=C(CC[C@@]24C)C(=O)OC3)cc1`, the IC50 was found to be 578 nM.

In the case of `COc1cc(/C=C/C(=O)O[C@@H]2[C@@]3(C(C)C)O[C@H]3[C@@H]3O[C@]34[C@]23O[C@H]3C[C@H]2C3=C(CC[C@@]24C)C(=O)OC3)ccc1OCc1ccccc1`, the IC50 stood at 1020 nM.

In the case of `CC(C)[C@]12O[C@H]1[C@@H]1O[C@]13[C@]1(O[C@H]1C[C@H]1C4=C(CC[C@@]13C)C(=O)OC4)[C@@H]2OC(=O)/C=C/c1ccc(N(C)C)cc1`, the IC50 stood at 696 nM.

Take `CC(C)[C@]12O[C@H]1[C@@H]1O[C@]13[C@]1(O[C@H]1C[C@H]1C4=C(CC[C@@]13C)C(=O)OC4)[C@@H]2OC(=O)/C=C/c1ccccc1N1CCCCC1`: the IC50 came to 1720 nM.

Regarding `CC(C)[C@]12O[C@H]1[C@@H]1O[C@]13[C@]1(O[C@H]1C[C@H]1C4=C(CC[C@@]13C)C(=O)OC4)[C@@H]2OC(=O)/C=C/c1ccc(C(F)(F)F)cc1`, the IC50 was determined as 899 nM.

As to `CC(C)[C@]12O[C@H]1[C@@H]1O[C@]13[C@]1(O[C@H]1C[C@H]1C4=C(CC[C@@]13C)C(=O)OC4)[C@@H]2O` [TRIPTOLIDE], the IC50 worked out at 468 nM.

`CC(C)[C@]12O[C@H]1[C@@H]1O[C@]13[C@]1(O[C@H]1C[C@H]1C4=C(CC[C@@]13C)C(=O)OC4)[C@@H]2OC(=O)/C=C/c1ccc(F)cc1`: the IC50 came out at 439 nM.

As for `COc1cc(/C=C/C(=O)O[C@@H]2[C@@]3(C(C)C)O[C@H]3[C@@H]3O[C@]34[C@]23O[C@H]3C[C@H]2C3=C(CC[C@@]24C)C(=O)OC3)cc(OC)c1OC`, the IC50 is 689 nM.
